Measurements from patent EP0555116B1, “Compositions based on antiseptics and their applications” (HUTCHINSON, priority 1992, dated 1993).

Columns and labels:
S. aureus ATCC 6538 = assay: Disinfection time test (Essai 2, Tables D-F), reaction at 22°, subcultures 72 h at 37°C; format: cell-based, Staphylococcus aureus
Experimental: (§1) Un autre essai a été réalisé à partir des solutions suivantes : • 100 ml d'une solution à 0,1 % de digluconate de chlorhexidine (pH 6) et • 100 ml d'une solution à 0,1 % de Bardac 22®.
(§2) Les tests ont été réalisés conformément au protocole décrit dans le Chapitre I/2.1 et 2.2 de Richtlinien für die Prüfung und Bewertung chemischer Desinfektionsverfahren der DGHM, Stand 1.1., 1981).
(§3) Les tests dont les résultats sont illustrés aux Tableaux D, E et F ont été réalisés à une température de réaction de 22° avec une incubation des sous-cultures 72 heures à 37°C avec comme substances inactivantes : Tween® 80 3 % + saponine 3 % + cystéine 0,1 % + histidine 0,1 %; ces Tableaux illustrent respectivement l'activité bactéricide et fongicide d'une solution aqueuse à 0,1 % de digluconate de chlorhexidine, d'une solution aqueuse à 0,1 % de Bardac 22® et d'un mélange à part égale des deux composés et montrent l'action des antiseptiques précités, en fonction du temps de contact, et font apparaître la même synergie d'action de l'association que ci-dessus, dans la mesure où l'association des deux composés permet de diminuer significativement leur concentration, pour l'obtention d'un même effet. TABLEAU D

E. coli ATCC 11229 = assay: as above; format: cell-based, Escherichia coli
Experimental: as §1, §2, §3

Measured: croissance

[H]/N=C(\N/C(=N/[H])NCCCCCCNC(=N)NC(=N)Nc1ccc(Cl)cc1)Nc1ccc(Cl)cc1 [Chlorhexidine, digluconate de chlorhexidine, reference compound]
+: S. aureus ATCC 6538; Conc. 0,1 % (vol/vol), 1 min | S. aureus ATCC 6538; Conc. 0,1 % (vol/vol), 3 min | S. aureus ATCC 6538; Conc. 0,1 % (vol/vol), 5 min | S. aureus ATCC 6538; Conc. 0,1 % (vol/vol), 15 min | S. aureus ATCC 6538; Conc. 0,1 % (vol/vol), 30 min | S. aureus ATCC 6538; Conc. 0,1 % (vol/vol), 60 min | S. aureus ATCC 6538; Conc. 0,05 % (vol/vol), 1 min | S. aureus ATCC 6538; Conc. 0,5 % (vol/vol), 1 min | S. aureus ATCC 6538; Conc. 0,05 % (vol/vol), 3 min | S. aureus ATCC 6538; Conc. 0,5 % (vol/vol), 3 min | S. aureus ATCC 6538; Conc. 0,05 % (vol/vol), 5 min | S. aureus ATCC 6538; Conc. 0,5 % (vol/vol), 5 min | S. aureus ATCC 6538; Conc. 0,05 % (vol/vol), 15 min | S. aureus ATCC 6538; Conc. 0,5 % (vol/vol), 15 min | S. aureus ATCC 6538; Conc. 0,05 % (vol/vol), 30 min | S. aureus ATCC 6538; Conc. 0,5 % (vol/vol), 30 min | S. aureus ATCC 6538; Conc. 0,05 % (vol/vol), 60 min | S. aureus ATCC 6538; Conc. 0,5 % (vol/vol), 60 min | S. aureus ATCC 6538; Conc. 1 % (vol/vol), 1 min | S. aureus ATCC 6538; Conc. 1 % (vol/vol), 3 min | S. aureus ATCC 6538; Conc. 1 % (vol/vol), 5 min | S. aureus ATCC 6538; Conc. 1 % (vol/vol), 15 min | S. aureus ATCC 6538; Conc. 1 % (vol/vol), 30 min | S. aureus ATCC 6538; Conc. 1 % (vol/vol), 60 min | S. aureus ATCC 6538; Conc. 5 % (vol/vol), 1 min | S. aureus ATCC 6538; Conc. 5 % (vol/vol), 3 min | S. aureus ATCC 6538; Conc. 5 % (vol/vol), 5 min | S. aureus ATCC 6538; Conc. 5 % (vol/vol), 15 min | S. aureus ATCC 6538; Conc. 5 % (vol/vol), 30 min | S. aureus ATCC 6538; Conc. 5 % (vol/vol), 60 min | S. aureus ATCC 6538; Conc. 10 % (vol/vol), 1 min | S. aureus ATCC 6538; Conc. 10 % (vol/vol), 3 min | S. aureus ATCC 6538; Conc. 10 % (vol/vol), 5 min | S. aureus ATCC 6538; Conc. 10 % (vol/vol), 15 min | S. aureus ATCC 6538; Conc. 10 % (vol/vol), 30 min | S. aureus ATCC 6538; Conc. 25 % (vol/vol), 1 min | S. aureus ATCC 6538; Conc. 25 % (vol/vol), 3 min | S. aureus ATCC 6538; Conc. 25 % (vol/vol), 5 min | S. aureus ATCC 6538; Conc. 25 % (vol/vol), 15 min | E. coli ATCC 11229; Conc. 0,1 % (vol/vol), 1 min | E. coli ATCC 11229; Conc. 0,1 % (vol/vol), 3 min | E. coli ATCC 11229; Conc. 0,1 % (vol/vol), 5 min | E. coli ATCC 11229; Conc. 0,1 % (vol/vol), 15 min | E. coli ATCC 11229; Conc. 0,1 % (vol/vol), 30 min | E. coli ATCC 11229; Conc. 0,1 % (vol/vol), 60 min | E. coli ATCC 11229; Conc. 0,05 % (vol/vol), 1 min | E. coli ATCC 11229; Conc. 0,5 % (vol/vol), 1 min | E. coli ATCC 11229; Conc. 0,05 % (vol/vol), 3 min | E. coli ATCC 11229; Conc. 0,5 % (vol/vol), 3 min | E. coli ATCC 11229; Conc. 0,05 % (vol/vol), 5 min | E. coli ATCC 11229; Conc. 0,5 % (vol/vol), 5 min | E. coli ATCC 11229; Conc. 0,05 % (vol/vol), 15 min | E. coli ATCC 11229; Conc. 0,5 % (vol/vol), 15 min | E. coli ATCC 11229; Conc. 0,05 % (vol/vol), 30 min | E. coli ATCC 11229; Conc. 0,5 % (vol/vol), 30 min | E. coli ATCC 11229; Conc. 0,05 % (vol/vol), 60 min | E. coli ATCC 11229; Conc. 0,5 % (vol/vol), 60 min | E. coli ATCC 11229; Conc. 1 % (vol/vol), 1 min | E. coli ATCC 11229; Conc. 1 % (vol/vol), 3 min | E. coli ATCC 11229; Conc. 1 % (vol/vol), 5 min | E. coli ATCC 11229; Conc. 1 % (vol/vol), 15 min | E. coli ATCC 11229; Conc. 1 % (vol/vol), 30 min | E. coli ATCC 11229; Conc. 1 % (vol/vol), 60 min | E. coli ATCC 11229; Conc. 5 % (vol/vol), 1 min | E. coli ATCC 11229; Conc. 5 % (vol/vol), 3 min | E. coli ATCC 11229; Conc. 5 % (vol/vol), 5 min | E. coli ATCC 11229; Conc. 5 % (vol/vol), 15 min | E. coli ATCC 11229; Conc. 10 % (vol/vol), 1 min | E. coli ATCC 11229; Conc. 10 % (vol/vol), 3 min | E. coli ATCC 11229; Conc. 10 % (vol/vol), 5 min | E. coli ATCC 11229; Conc. 25 % (vol/vol), 1 min | E. coli ATCC 11229; Conc. 25 % (vol/vol), 3 min | E. coli ATCC 11229; Conc. 25 % (vol/vol), 5 min
-: S. aureus ATCC 6538; Conc. 10 % (vol/vol), 60 min | S. aureus ATCC 6538; Conc. 25 % (vol/vol), 30 min | S. aureus ATCC 6538; Conc. 25 % (vol/vol), 60 min | E. coli ATCC 11229; Conc. 5 % (vol/vol), 30 min | E. coli ATCC 11229; Conc. 5 % (vol/vol), 60 min | E. coli ATCC 11229; Conc. 10 % (vol/vol), 15 min | E. coli ATCC 11229; Conc. 10 % (vol/vol), 30 min | E. coli ATCC 11229; Conc. 10 % (vol/vol), 60 min | E. coli ATCC 11229; Conc. 25 % (vol/vol), 15 min | E. coli ATCC 11229; Conc. 25 % (vol/vol), 30 min | E. coli ATCC 11229; Conc. 25 % (vol/vol), 60 min

CCCCCCCCCC[N+](C)(C)CCCCCCCCCC [Bardac®, chlorure de didécyldiméthylammonium]
-: S. aureus ATCC 6538; Conc. 1 % (vol/vol), 30 min | S. aureus ATCC 6538; Conc. 1 % (vol/vol), 60 min | S. aureus ATCC 6538; Conc. 5 % (vol/vol), 15 min | S. aureus ATCC 6538; Conc. 5 % (vol/vol), 30 min | S. aureus ATCC 6538; Conc. 5 % (vol/vol), 60 min | S. aureus ATCC 6538; Conc. 10 % (vol/vol), 3 min | S. aureus ATCC 6538; Conc. 10 % (vol/vol), 5 min | S. aureus ATCC 6538; Conc. 10 % (vol/vol), 15 min | S. aureus ATCC 6538; Conc. 10 % (vol/vol), 30 min | S. aureus ATCC 6538; Conc. 10 % (vol/vol), 60 min | S. aureus ATCC 6538; Conc. 25 % (vol/vol), 3 min | S. aureus ATCC 6538; Conc. 25 % (vol/vol), 5 min | S. aureus ATCC 6538; Conc. 25 % (vol/vol), 15 min | S. aureus ATCC 6538; Conc. 25 % (vol/vol), 30 min | S. aureus ATCC 6538; Conc. 25 % (vol/vol), 60 min | E. coli ATCC 11229; Conc. 5 % (vol/vol), 15 min | E. coli ATCC 11229; Conc. 5 % (vol/vol), 30 min | E. coli ATCC 11229; Conc. 5 % (vol/vol), 60 min | E. coli ATCC 11229; Conc. 10 % (vol/vol), 5 min | E. coli ATCC 11229; Conc. 10 % (vol/vol), 15 min | E. coli ATCC 11229; Conc. 10 % (vol/vol), 30 min | E. coli ATCC 11229; Conc. 10 % (vol/vol), 60 min | E. coli ATCC 11229; Conc. 25 % (vol/vol), 1 min | E. coli ATCC 11229; Conc. 25 % (vol/vol), 3 min | E. coli ATCC 11229; Conc. 25 % (vol/vol), 5 min | E. coli ATCC 11229; Conc. 25 % (vol/vol), 15 min | E. coli ATCC 11229; Conc. 25 % (vol/vol), 30 min | E. coli ATCC 11229; Conc. 25 % (vol/vol), 60 min
+: S. aureus ATCC 6538; Conc. 0,1 % (vol/vol), 1 min | S. aureus ATCC 6538; Conc. 0,1 % (vol/vol), 3 min | S. aureus ATCC 6538; Conc. 0,1 % (vol/vol), 5 min | S. aureus ATCC 6538; Conc. 0,1 % (vol/vol), 15 min | S. aureus ATCC 6538; Conc. 0,1 % (vol/vol), 30 min | S. aureus ATCC 6538; Conc. 0,1 % (vol/vol), 60 min | S. aureus ATCC 6538; Conc. 0,05 % (vol/vol), 1 min | S. aureus ATCC 6538; Conc. 0,5 % (vol/vol), 1 min | S. aureus ATCC 6538; Conc. 0,05 % (vol/vol), 3 min | S. aureus ATCC 6538; Conc. 0,5 % (vol/vol), 3 min | S. aureus ATCC 6538; Conc. 0,05 % (vol/vol), 5 min | S. aureus ATCC 6538; Conc. 0,5 % (vol/vol), 5 min | S. aureus ATCC 6538; Conc. 0,05 % (vol/vol), 15 min | S. aureus ATCC 6538; Conc. 0,5 % (vol/vol), 15 min | S. aureus ATCC 6538; Conc. 0,05 % (vol/vol), 30 min | S. aureus ATCC 6538; Conc. 0,5 % (vol/vol), 30 min | S. aureus ATCC 6538; Conc. 0,05 % (vol/vol), 60 min | S. aureus ATCC 6538; Conc. 0,5 % (vol/vol), 60 min | S. aureus ATCC 6538; Conc. 1 % (vol/vol), 1 min | S. aureus ATCC 6538; Conc. 1 % (vol/vol), 3 min | S. aureus ATCC 6538; Conc. 1 % (vol/vol), 5 min | S. aureus ATCC 6538; Conc. 1 % (vol/vol), 15 min | S. aureus ATCC 6538; Conc. 5 % (vol/vol), 1 min | S. aureus ATCC 6538; Conc. 5 % (vol/vol), 3 min | S. aureus ATCC 6538; Conc. 5 % (vol/vol), 5 min | S. aureus ATCC 6538; Conc. 10 % (vol/vol), 1 min | S. aureus ATCC 6538; Conc. 25 % (vol/vol), 1 min | E. coli ATCC 11229; Conc. 0,1 % (vol/vol), 1 min | E. coli ATCC 11229; Conc. 0,1 % (vol/vol), 3 min | E. coli ATCC 11229; Conc. 0,1 % (vol/vol), 5 min | E. coli ATCC 11229; Conc. 0,1 % (vol/vol), 15 min | E. coli ATCC 11229; Conc. 0,1 % (vol/vol), 30 min | E. coli ATCC 11229; Conc. 0,1 % (vol/vol), 60 min | E. coli ATCC 11229; Conc. 0,05 % (vol/vol), 1 min | E. coli ATCC 11229; Conc. 0,5 % (vol/vol), 1 min | E. coli ATCC 11229; Conc. 0,05 % (vol/vol), 3 min | E. coli ATCC 11229; Conc. 0,5 % (vol/vol), 3 min | E. coli ATCC 11229; Conc. 0,05 % (vol/vol), 5 min | E. coli ATCC 11229; Conc. 0,5 % (vol/vol), 5 min | E. coli ATCC 11229; Conc. 0,05 % (vol/vol), 15 min | E. coli ATCC 11229; Conc. 0,5 % (vol/vol), 15 min | E. coli ATCC 11229; Conc. 0,05 % (vol/vol), 30 min | E. coli ATCC 11229; Conc. 0,5 % (vol/vol), 30 min | E. coli ATCC 11229; Conc. 0,05 % (vol/vol), 60 min | E. coli ATCC 11229; Conc. 0,5 % (vol/vol), 60 min | E. coli ATCC 11229; Conc. 1 % (vol/vol), 1 min | E. coli ATCC 11229; Conc. 1 % (vol/vol), 3 min | E. coli ATCC 11229; Conc. 1 % (vol/vol), 5 min | E. coli ATCC 11229; Conc. 1 % (vol/vol), 15 min | E. coli ATCC 11229; Conc. 1 % (vol/vol), 30 min | E. coli ATCC 11229; Conc. 1 % (vol/vol), 60 min | E. coli ATCC 11229; Conc. 5 % (vol/vol), 1 min | E. coli ATCC 11229; Conc. 5 % (vol/vol), 3 min | E. coli ATCC 11229; Conc. 5 % (vol/vol), 5 min | E. coli ATCC 11229; Conc. 10 % (vol/vol), 1 min | E. coli ATCC 11229; Conc. 10 % (vol/vol), 3 min
